Assay results as given in patent US7491794B2, “Macrocyclic compounds as inhibitors of viral replication” (Intermune, Inc., priority 2003, dated 2009).
Where two headings read alike, the source gives them in different places.

How the values were obtained:
[1] = tested on: HCV sub-genomic replicon, GS4.3; test: Quantitation by ELISA of NPTII in the HCV sub-genomic replicon, GS4.3, Section B; format: cell-based; conditions: Hepatitis C virus, read-out: Replicon EC50
Text: Quantitation by ELISA of the Selectable Marker Protein, Neomycin Phosphotransferase II (NPTII) in the HCV Sub-Genomic Replicon, GS4.3
The HCV sub-genomic replicon (1377/NS3-3′, accession No. AJ242652), stably maintained in HuH-7 hepatoma cells, was created by Lohmann et al. Science 285: 110-113 (1999). The replicon-containing cell culture, designated GS4.3, was obtained from Dr. Christoph Seeger of the Institute for Cancer Research, Fox Chase Cancer Center, Philadelphia, Pa.
GS4.3 cells were maintained at 37° C., 5% CO2, in DMEM (Gibco 11965-092) supplemented with L-glutamine 200 mM (100×) (Gibco25030-081), non-essential amino acids (NEAA)(Biowhittaker 13-114E), heat-inactivated (HI) Fetal Bovine Serum(FBS)(Hyclone SH3007.03) and 750 μg/ml geneticin (G418)(Gibco 10131-035). Cells were sub-divided 1:3 or 4 every 2-3 days.
24 hours prior to the assay, GS4.3 cells were collected, counted, and plated in 96-well plates (Costar 3585) at 7500 cells/well in 100 μl standard maintenance medium (above) and incubated in the conditions above. To initiate the assay, culture medium was removed, cells were washed once with PBS (Gibco 10010-023) and 90 μl Assay Medium (DMEM, L-glutamine, NEAA, 10% HI FBS, no G418) was added. Inhibitors were made as a 10× stock in Assay Medium, (3-fold dilutions from 10 μM to […] final concentration, final DMSO concentration 1%), 10 μl were added to duplicate wells, plates were rocked to mix, and incubated as above for 72 h.
An NPTII ELISA kit was obtained from AGDIA, Inc. (Compound direct ELISA test system for Neomycin Phosphotransferase II, PSP 73000/4800). Manufacturer's instructions were followed, with some modifications. 10×PEB-1 lysis buffer was made up to include 500 μM PMSF (Sigma P7626, 50 mM stock in isopropanol). After 72 h incubation, cells were washed once with PBS and 150 μl PEB-1 with PMSF was added per well. Plates were agitated vigorously for 15 minutes, room temperature, then frozen at −70° C. Plates were thawed, lysates were mixed thoroughly, and 100 μl were applied to an NPTII Elisa plate. A standard curve was made. Lysate from DMSO-treated control cells was pooled, serially diluted with PEB-1 with PMSF, and applied to duplicate wells of the ELISA plate, in a range of initial lysate amount of 150u1-2.5 ul. In addition, 100 μl buffer alone was applied in duplicate as a blank. Plates were sealed and gently agitated at room temperature for 2 h. Following capture incubation, the plates were washed 5×300 μl with PBS-T (0.5% Tween-20, PBS-T was supplied in the ELISA kit). For detection, a 1× dilution of enzyme conjugate diluent MRS-2 (5×) was made in PBS-T, into which 1:100 dilutions of enzyme conjugates A and B were added, as per instructions. Plates were resealed, and incubated with agitation, covered, room temperature, for 2 h. The washing was then repeated and 100 μl of room temperature TMB substrate was added. After approximately 30 minutes incubation (room temperature, agitation, covered), the reaction was stopped with 50 μl 3M sulfuric acid. Plates were read at 450 nm on a Molecular Devices Versamax plate reader.
Inhibitor effect was expressed as a percentage of DMSO-treated control signal, and inhibition curves were calculated using a 4-parameter equation: y=A+((B−A)/(1+((C/x)^D))), where C is half-maximal activity or EC50.

[2] = target: T1, NS3-NS4A protease (Hepatitis C virus genotype 1a, UniProt P27958); test: NS3-NS4A protease assay (NS3 inhibition assay, RETS1 substrate), Section B; format: biochemical
T1 construct: Recombinant E. coli or Baculovirus full-length NS3 was diluted to 3.33 μM with assay buffer; made in house; host or cells: E. coli or baculovirus (BV) system
How it was run: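 Full-length NS3 (E. coli or baculovirus) precomplexed with excess NS4A-2 peptide, run at 2 nM (E. coli) or 3 nM (BV) NS3; compounds pre-incubated 10 min at room temperature before RETS1 substrate. Fluorescence (ex 335/em 495 nm) read kinetically 30 min; IC50 from four-parameter fit, converted to Ki via Ki=IC50/(1+[S]/Km).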

T1 sequence (P27958 1027-1657): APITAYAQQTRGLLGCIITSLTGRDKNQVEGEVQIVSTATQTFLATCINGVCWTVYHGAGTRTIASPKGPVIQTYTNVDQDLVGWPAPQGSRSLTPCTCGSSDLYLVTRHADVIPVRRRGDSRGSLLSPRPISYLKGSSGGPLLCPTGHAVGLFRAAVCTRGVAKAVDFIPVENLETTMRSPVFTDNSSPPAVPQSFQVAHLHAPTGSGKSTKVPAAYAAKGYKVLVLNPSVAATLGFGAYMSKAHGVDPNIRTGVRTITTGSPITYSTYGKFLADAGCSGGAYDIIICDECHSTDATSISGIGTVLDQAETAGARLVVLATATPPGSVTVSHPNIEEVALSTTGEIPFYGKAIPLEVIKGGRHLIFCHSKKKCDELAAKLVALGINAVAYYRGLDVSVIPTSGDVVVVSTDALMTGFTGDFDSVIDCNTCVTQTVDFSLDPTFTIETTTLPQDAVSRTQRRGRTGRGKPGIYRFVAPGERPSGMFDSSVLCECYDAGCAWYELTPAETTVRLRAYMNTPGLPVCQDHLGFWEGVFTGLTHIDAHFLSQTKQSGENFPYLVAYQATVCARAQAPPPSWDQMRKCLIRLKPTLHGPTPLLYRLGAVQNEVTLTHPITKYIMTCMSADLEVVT

In the case of `CC(C)(C)OC(=O)N[C@H]1CCCCC/C=C\[C@@H]2C[C@@]2(C(=O)O)NC(=O)[C@@H]2C[C@@H](OC(=O)N3CCc4c(F)cccc4C3)CN2C1=O` [AR00294384, (1S,4R,6S,14S,18R)-14-tert-Butoxycarbonylamino-18-(5-fluoro-3,4-dihydro-1H-isoquinoline-2-carbonyloxy)-2,15-dioxo-3,16-diaza-tricyclo[14.3.0.0^4,6]nonadec-7-ene-4-carboxylic acid], the EC50 ([1]; GS4.3 cells, 72 h incubation) is reported as less than 10000 nM and the IC50 ([2]; read-out: NS3-NS4A IC50) is reported as less than 1000 nM.

`CC(C)(C)OC(=O)N[C@H]1CCCCC/C=C\[C@@H]2C[C@@]2(C(=O)NS(=O)(=O)C2CC2)NC(=O)[C@@H]2C[C@@H](OC(=O)N3CCc4c(F)cccc4C3)CN2C1=O` [AR00298996, (1S,4R,6S,14S,18R)-5-Fluoro-3,4-dihydro-1H-isoquinoline-2-carboxylic acid 14-tert-butoxycarbonylamino-4-cyclopropanesulfonylaminocarbonyl-2,15-dioxo-3,16-diaza-tricyclo[14.3.0.0^4,6]nonadec-7-en-18-yl ester] was tested, and the EC50 ([1]; GS4.3 cells, 72 h incubation) was less than 100 nM and the IC50 ([2]; read-out: NS3-NS4A IC50) was less than 100 nM.

Work on `CC(C)(C)OC(=O)N[C@H]1CCCCC/C=C\[C@@H]2C[C@@]2(C(=O)NS(=O)(=O)C2CC2)NC(=O)[C@@H]2C[C@@H](OC(=O)N3CCc4cccc(C(F)(F)F)c4C3)CN2C1=O` [AR00298997, (1S,4R,6S,14S,18R)-8-Trifluoromethyl-3,4-dihydro-1H-isoquinoline-2-carboxylic acid 14-tert-butoxycarbonylamino-4-cyclopropanesulfonylaminocarbonyl-2,15-dioxo-3,16-diaza-tricyclo[14.3.0.0^4,6]nonadec-7-en-18-yl ester] yielded an EC50 ([1]; GS4.3 cells, 72 h incubation) of less than 100 nM and an IC50 ([2]; read-out: NS3-NS4A IC50) of less than 100 nM.

In the case of `CC(C)[C@@H](NC(=O)c1cnccn1)C(=O)N[C@H]1CCCCC/C=C\[C@@H]2C[C@@]2(C(=O)O)NC(=O)[C@@H]2C[C@@H](OC(=O)N3CCc4ccccc4C3)CN2C1=O` [AR00301338, (1S,4R,6S,14S,18R)-18-(3,4-Dihydro-1H-isoquinoline-2-carbonyloxy)-14-{3-methyl-2-[(pyrazine-2-carbonyl)-amino]-butyrylamino}-2,15-dioxo-3,16-diaza-tricyclo[14.3.0.0^4,6]nonadec-7-ene-4-carboxylic acid], the EC50 ([1]; 72 h) is reported as less than 10000 nM and the IC50 [2] is reported as less than 100 nM.

Work on `CC(C)(C)OC(=O)N[C@H]1CCCCC/C=C\[C@@H]2C[C@@]2(C(=O)O)NC(=O)[C@@H]2C[C@@H](OC(=O)N3CCc4c(N)cccc4C3)CN2C1=O` [AR00301745, (1S,4R,6S,14S,18R)-18-(5-Amino-3,4-dihydro-1H-isoquinoline-2-carbonyloxy)-14-tert-butoxycarbonylamino-2,15-dioxo-3,16-diaza-tricyclo[14.3.0.0^4,6]nonadec-7-ene-4-carboxylic acid] yielded an EC50 ([1]; GS4.3 cells, 72 h incubation) of less than 10000 nM and an IC50 ([2]; read-out: NS3-NS4A IC50) of less than 1000 nM.

In the case of `CC(C)(C)OC(=O)N[C@H]1CCCCC/C=C\[C@@H]2C[C@@]2(C(=O)NS(=O)(=O)C2CC2)NC(=O)[C@@H]2C[C@@H](OC(=O)N3CCc4ccc(Cl)cc4C3)CN2C1=O` [AR00301746, (1S,4R,6S,14S,18R)-7-Chloro-3,4-dihydro-1H-isoquinoline-2-carboxylic acid 14-tert-butoxycarbonylamino-4-cyclopropanesulfonylaminocarbonyl-2,15-dioxo-3,16-diaza-tricyclo[14.3.0.0^4,6]nonadec-7-en-18-yl ester], the EC50 ([1]; GS4.3 cells, 72 h incubation) is reported as less than 100 nM and the IC50 ([2]; read-out: NS3-NS4A IC50) is reported as less than 100 nM.

`CC(C)(C)OC(=O)N[C@H]1CCCCC/C=C\[C@@H]2C[C@@]2(C(=O)NS(=O)(=O)C2CC2)NC(=O)[C@@H]2C[C@@H](OC(=O)N3CCc4cc(C(F)(F)F)ccc4C3)CN2C1=O` [AR00301747, (1S,4R,6S,14S,18R)-6-Trifluoromethyl-3,4-dihydro-1H-isoquinoline-2-carboxylic acid 14-tert-butoxycarbonylamino-4-cyclopropanesulfonylaminocarbonyl-2,15-dioxo-3,16-diaza-tricyclo[14.3.0.0^4,6]nonadec-7-en-18-yl ester] showed an EC50 ([1]; GS4.3 cells, 72 h incubation) of less than 100 nM and an IC50 ([2]; read-out: NS3-NS4A IC50) of less than 100 nM.

Molecule `CC(C)(C)OC(=O)N[C@H]1CCCCC/C=C\[C@@H]2C[C@@]2(C(=O)O)NC(=O)[C@@H]2C[C@@H](OC(=O)N3CCc4ccc(N)cc4C3)CN2C1=O` [AR00301749, (1S,4R,6S,14S,18R)-18-(7-Amino-3,4-dihydro-1H-isoquinoline-2-carbonyloxy)-14-tert-butoxycarbonylamino-2,15-dioxo-3,16-diaza— tricyclo[14.3.0.0^4,6]nonadec-7-ene-4-carboxylic acid] has an EC50 ([1]; GS4.3 cells, 72 h incubation) of less than 10000 nM and an IC50 ([2]; read-out: NS3-NS4A IC50) of less than 1000 nM.

For `CC(C)(C)OC(=O)N[C@H]1CCCCC/C=C\[C@@H]2C[C@@]2(C(=O)NS(=O)(=O)C2CC2)NC(=O)[C@@H]2C[C@@H](OC(=O)N3CCc4cc(F)ccc4C3)CN2C1=O` [AR00301751, (1S,4R,6S,14S,18R)-6-Fluoro-3,4-dihydro-1H-isoquinoline-2-carboxylic acid 14-tert-butoxycarbonylamino-4-cyclopropanesulfonylaminocarbonyl-2,15-dioxo-3,16-diaza-tricyclo[14.3.0.0^4,6]nonadec-7-en-18-yl ester], the EC50 ([1]; GS4.3 cells, 72 h incubation) was less than 100 nM and the IC50 ([2]; read-out: NS3-NS4A IC50) was less than 100 nM.

Work on `CC(C)(C)OC(=O)N[C@H]1CCCCC/C=C\[C@@H]2C[C@@]2(C(=O)O)NC(=O)[C@@H]2C[C@@H](OC(=O)N3CCc4nc(Nc5ccccc5)sc4C3)CN2C1=O` [AR00304000, (1S,4R,6S,14S,18R)-14-tert-Butoxycarbonylamino-2,15-dioxo-18-(2-phenylamino-6,7-dihydro-4H-thiazolo[5,4-c]pyridine-5-carbonyloxy)-3,16-diaza-tricyclo[14.3.0.0^4,6]nonadec-7-ene-4-carboxylic acid] yielded an EC50 ([1]; GS4.3 cells, 72 h incubation) of less than 10000 nM and an IC50 ([2]; read-out: NS3-NS4A IC50) of less than 1000 nM.

In the case of `CC(C)(C)OC(=O)N[C@H]1CCCCC/C=C\[C@@H]2C[C@@]2(C(=O)NS(=O)(=O)C2CC2)NC(=O)[C@@H]2C[C@@H](NC(=O)N3Cc4ccccc4C3)CN2C1=O` [AR00304008, (1S,4R,6S,14S,18R)-{4-Cyclopropanesulfonylaminocarbonyl-18-[(1,3-dihydro-isoindole-2-carbonyl)-amino]-2,15-dioxo-3,16-diaza-tricyclo[14.3.0.0^4,6]nonadec-7-en-14-yl}-carbamic acid tert-butyl ester], the EC50 ([1]; GS4.3 cells, 72 h incubation) is reported as less than 100 nM and the IC50 ([2]; read-out: NS3-NS4A IC50) is reported as less than 100 nM.

Molecule `CC(C)(C)OC(=O)N[C@H]1CCCCC/C=C\[C@@H]2C[C@@]2(C(=O)O)NC(=O)[C@@H]2C[C@@H](NC(=S)N3CCc4ccccc4C3)CN2C1=O` [AR00304010, (1S,4R,6S,14S,18R)-14-tert-Butoxycarbonylamino-18-[(3,4-dihydro-1H-isoquinoline-2-carbothioyl)-amino]-2,15-dioxo-3,16-diaza-tricyclo[14.3.0.0^4,6]nonadec-7-ene-4-carboxylic acid] has an EC50 ([1]; GS4.3 cells, 72 h incubation) of less than 10000 nM and an IC50 ([2]; read-out: NS3-NS4A IC50) of less than 1000 nM.

`CC(C)(C)OC(=O)N[C@H]1CCCCC/C=C\[C@@H]2C[C@@]2(C(=O)NS(=O)(=O)C2CC2)NC(=O)[C@@H]2C[C@@H](NC(=S)N3CCc4ccccc4C3)CN2C1=O` [AR00304012, (1S,4R,6S,14S,18R)-{4-Cyclopropanesulfonylaminocarbonyl-18-[(3,4-dihydro-1H-isoquinoline-2-carbothioyl)-amino]-2,15-dioxo-3,16-diaza-tricyclo[14.3.0.0^4,6]nonadec-7-en-14-yl}-carbamic acid tert-butyl ester] gave an EC50 ([1]; GS4.3 cells, 72 h incubation) of less than 1000 nM and an IC50 ([2]; read-out: NS3-NS4A IC50) of less than 100 nM.
